According to patent US7588899B2, “Fluorescent probes for use in protein kinase inhibitor binding assay” (Boehringer Ingelheim Pharmaceuticals, Inc., priority 2003, dated 2009):

Target: STK12 kinase domain (Homo sapiens, UniProt Q96GD4)
Test: Fluorescence polarization titration of the fluorescent probe with STK12 kinase domain
Type: binding
Details: 25 nM probe, STK12 kinase domain serially diluted
Procedure: Step one: Characterization of the Fluorescent Probe
An absorbance spectrum is first evaluated for each probe. The excitation and emission spectra are then measured in order to identify the appropriate excitation and emission wavelengths for detecting the probe. An example of such a probe is 6-(2,7-difluoro-6-hydroxy-3-oxo-3H-xanthen-9-yl)-N-[6-(5-nitro-2-phenylamino-pyrimidin-4-ylamino)-hexyl]-isophthalamic acid where the excitation and emission maxima are 496 nm and 524 nm, respectively. These fluorescence spectra were measured on an SLM-8100 fluorimeter with the probe dissolved in an assay buffer (50 mM HEPES, pH 7.4, 100 mM NaCl, 5 mM MgCl2 5 % Glycerol, 200 mM TCEP and 0.01% (w/v) CHAPS, 2 % DMSO).
The affinity of the probe for STK12 kinase domain was then determined in a titration experiment. The polarization assay is carried out in Corning® Costar® NBS 96-well solid black flat bottom plates. In this example, an LJL Analyst® assay detection system was used with filters appropriate for the excitation/emission characteristics of the fluorescent probe. STK12 kinase domain was serially diluted into wells containing 25 nM probe to cover a broad concentration range across the plate. In addition, several wells contain either probe alone or probe with the highest concentration of STK12 kinase domain. This is done in order to calculate the Qb/Qf ratio for the probe/kinase domain pair. […]

STK12 kinase domain, sequence (Q96GD4 77-327 limits assumed): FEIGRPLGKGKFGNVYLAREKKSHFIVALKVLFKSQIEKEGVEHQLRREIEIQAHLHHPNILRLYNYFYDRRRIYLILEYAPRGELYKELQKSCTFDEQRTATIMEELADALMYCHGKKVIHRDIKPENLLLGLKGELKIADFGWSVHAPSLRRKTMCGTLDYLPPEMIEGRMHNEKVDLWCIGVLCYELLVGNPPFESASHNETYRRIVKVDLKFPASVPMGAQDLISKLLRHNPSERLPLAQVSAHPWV

In the case of `O=C(NCCCCCCNc1nc(Nc2ccccc2)ncc1[N+](=O)[O-])c1ccc(-c2c3cc(F)c(=O)cc-3oc3cc(O)c(F)cc23)c(C(=O)O)c1` [Compound G, 6-(2,7-difluoro-6-hydroxy-3-oxo-3H-xanthen-9-yl)-N-[6-(5-nitro-2-phenylamino-pyrimidin-4-ylamino)-hexyl]-isophthalamic acid], the “binding of fluorescent probe to STK12 kinase domain” value is reported as “binds to the active site of STK12 kinase domain”.
